“And” between values parts separate entries of the source, which are not always exact repeats. Identical values can stand only once.
What was measured:
[1] = test system: squamous cell carcinoma of the oral cavity or oropharynx; assay: PREVLAR trial: tumor response and cancer recurrence; type: in vivo, human
Text: Referring to FIG. 6, FIG. 6 is a table 600 showing various incidences of outcomes for patients in Arm 4 of the PREVLAR study vs. patients in Arms 1, 2, and 3 of the PREVLAR study. The various outcomes include a complete response (CR), a partial response (PR), a CR or PR, not evaluable (NE), and missing. […] Thus, administration of RRx-001 was correlated to better outcomes.
Referring to FIG. 10, FIG. 10 is a bar graph 1000 showing a percentage of less cancer recurrence in RRx-001 treated patients. Accordingly, a higher percentage is correlated to the better outcome of lower cancer recurrence. […] Patients in Arm 4 had the lowest percentage drop of 30.8% of cancer recurrence.
The treatment phase commenced 2 weeks before the start of CRT and continued until the LDRT. The short-term follow-up stage started the day after LDRT and continued until complete resolution of ulcerative OM (World Health Organization (WHO) grade≤1 or 6 weeks after the LDRT, whichever came first). Long-term follow-up was performed to assess tumor response for 12 months after the LDRT. OM was assessed twice weekly beginning on the first day of CRT and continuing to resolution of ulcerative OM by trained evaluators using a standardized data collection tool.

[2] = pharmacokinetic data, J. Scicinski et al. 2011; cited from earlier work
[3] = Repeated-dose toxicity study in dogs; type: in vivo
Method: Repeated-dose toxicity studies of RRx-001 (3 times/week up to 4 weeks in duration) were conducted in rats at dose levels of 12 mg/kg, 20.1 mg/kg, and 30 mg/kg per day and in dogs at dose levels of 4 mg/kg, 8 mg/kg, and 12 mg/kg per day (due to clinical signs, the 8 mg/kg and 12 mg/kg doses were reduced to 3 mg/kg and 5 mg/kg on Day 4). The no observed adverse effect level was <12 mg/kg in rats and 5 mg/kg in dogs.

[4] = test system: oral mucositis induced by acute radiation in hamsters; assay: Oral mucositis induced by acute radiation in hamsters; type: in vivo, Golden Hamsters
Method: Referring to FIG. 11, FIG. 11 is a table 1100 showing a study design for an assessment of RRx-001 for the treatment of oral mucositis induced by acute radiation in hamsters. Mucositis was induced in 56 male Golden Hamsters via an acute radiation dose of 40 Gy directed to their left buccal cheek pouch. RRX-001 was administered with a vehicle comprising a 1:2 vol; vol ratio of N,N-Dimethylacetamide/40% Polyethylene Glycol (DMA:PBG). […] Otherwise, dosing was administered according to the “Dose Schedule” column of the table 1100. The study lasted 28 days. Mucositis was evaluated in hamsters from day 6 through day 28.
Starting at day 6 of the study and continuing every second day thereafter (day 8, 10, 12, 14, 16, 18, 20, 22, 24, 26, and 28), the hamsters were photographed and evaluated for mucositis scoring. The hamsters were anesthetized and the left pouch everted to evaluate a score each hamster based on a severity of mucositis. The scores, on a scale of 0-5, are defined as follows: • “0” means a pouch is completely healthy. • “1” means light to […] erythema and vasodilation and no erosion of mucosa. • “2” means severe erythema and vasodilation. Erosion of superficial aspects of mucosa leaving denuded areas. Decreased stippling of mucosa. • “3” means formation of off-white ulcers in one or more places. Ulcers may have a yellow/gray color due to pseudomembrane. Cumulative size of ulcers should equal less than or equal to ¼ of the pouch. Severe erythema and vasodilation. • “4” means a cumulative seize of ulcers should equal about ½ of the pouch. Loss of pliability. Severe erythema and vasodilation. • “5” means virtually all of pouch is ulcerated. Loss of pliability (pouch can only partially be extracted from mouth).
FIG. 15B is a bar graph 1550 showing a percent of cumulative animal days with mucositis scores greater than or equal to 3 for days 6-28. Statistical significance of the observed differences was calculated using chi-squared analysis.
FIG. 16B is a bar graph 1650 showing a percent of cumulative animal days with mucositis scores greater than or equal to 3 for days 6-28. Statistical significance of the observed differences was calculated using chi-squared analysis.
Referring to FIG. 18, FIG. 18 is a table 1800 showing a percent of hamsters with ulceration by day with mucositis scores of greater than or equal to 3. Each data point represents a percentage of hamsters in each group on a day that had both a mucositis score of 3 or greater and open ulcers. Like FIGS. 17A and 17B, horizontal shading denotes a decrease in mucositis scores and vertical shading denotes an increase in mucositis scores.

[5] = cited from earlier work
hemoglobin = biological target: T1, hemoglobin (Homo sapiens, UniProt P68871); assay: 14C-RRx-001 binding to hemoglobin in blood; conditions: blood of rats, dogs, monkeys, humans; liquid scintillation counter
T1 construct: blood not pooled from 3 individual male humans; from tissue; host or cells: whole blood of 3 individual male humans
T1 sequence (P68871 2-147 limits assumed): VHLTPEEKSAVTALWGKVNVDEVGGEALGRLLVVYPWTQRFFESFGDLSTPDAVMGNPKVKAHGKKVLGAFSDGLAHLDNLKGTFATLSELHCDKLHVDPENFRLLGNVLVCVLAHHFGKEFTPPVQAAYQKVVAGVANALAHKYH
T1 sequence (P69905 2-142 partner limits assumed): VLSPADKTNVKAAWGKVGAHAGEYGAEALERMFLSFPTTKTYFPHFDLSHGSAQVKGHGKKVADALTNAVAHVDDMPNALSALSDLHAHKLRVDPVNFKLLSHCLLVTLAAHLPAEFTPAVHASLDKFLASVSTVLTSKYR
Method: ^14C-RRx-001 (1 μM and 20 μM) was incubated at a temperature of 37° C. for a time period of 30 minutes with blood pooled from 3 male Sprague Dawley rats, 3 male beagle dogs, and 2 male cynomolgus monkeys, and blood not pooled from 3 individual male humans. […] The range of binding to the 3 different human hemoglobin varied from 24% to 34%.

Compound: O=C(CBr)N1CC([N+](=O)[O-])([N+](=O)[O-])C1 [RRx-001, 2-bromo-1-(3,3-dinitroazetidin-1-yl) ethan-1-one]
- percentage drop of cancer recurrence ([1]; Arm 1): 50%
- percentage drop of cancer recurrence ([1]; Arm 2): 53.8%
- percentage drop of cancer recurrence ([1]; Arm 3): 76.9%
- incidence of either CR or PR ([1]; patients in Arms 1, 2, or 3): 65.7%
- incidence of complete response (CR) ([1]; patients that received RRx-001 in Arms 1, 2, or 3): 48.6%
- half-life of RRx-001 [2]: under an hour
- no observed adverse effect level ([3]; 3 times/week up to 4 weeks): 5 mg/kg
- organ effects ([3]; repeated dose): Effects on lungs were observed
- percent of hamsters with ulceration (mucositis score ≥3) ([4]; day 12, group 2 (10 mg/kg, discontinued after day 1)): 40%
- percent of hamsters with ulceration (mucositis score ≥3) ([4]; day 28, group 2 (10 mg/kg, discontinued after day 1)): 40%
- mean daily mucositis score ([4]; day 28, group 2 (10 mg/kg, dosing discontinued after day 1)): approximately 2.2
- mean daily mucositis score ([4]; day 28, group 3 (3 mg/kg)): approximately 2.7
- percent of hamsters with ulceration (mucositis score ≥3) ([4]; day 28, group 5 (10 mg/kg, discontinued after day 1)): 57.1%
- mean daily mucositis score ([4]; day 28, group 5 (10 mg/kg, dosing discontinued after day 1)): approximately 2.6
- mean daily mucositis score ([4]; day 28, group 6 (3 mg/kg)): approximately 2.7
- percent of hamsters with ulceration (mucositis score ≥3) ([4]; day 28, groups 3 and 6 (3 mg/kg)): 75.0%
- percent of hamsters with ulceration (mucositis score ≥3) ([4]; day 28, groups 4 and 7 (1 mg/kg)): 62.5%
- percent of cumulative animal days with mucositis score greater than or equal to 3 ([4]; days 6-28, group 3 (3 mg/kg)): 63.54%
- percent of cumulative animal days with mucositis score greater than or equal to 3 ([4]; days 6-28, group 6 (3 mg/kg), 3 mg/kg): 53.45% and 63.54%
- body weight change ([4]; groups 2 and 5 (10 mg/kg)): initially lost weight, but rebounded
- tolerability of dosing ([4]; groups 2 and 5 (10 mg/kg)): discontinued after day 1 due to adverse side effects
- dose-limiting toxicities and drug-drug interactions ([5]; N. Jayabalan et al. 2023): no dose-limiting toxicities and no drug-drug interactions have been observed
- safety and tolerability in humans ([5]; studies from multiple independent groups): safe and well-tolerated
- tolerability in prior safety assessments in humans ([5]; with and without concurrent radiation therapy, T. Reid et al. 2015): well-tolerated without significant toxicity
- partitioning of radioactivity in blood (hemoglobin): highly partition into red blood cells and covalently bind to hemoglobin

— patent publication US20260240810A1, “COMPOSITIONS AND METHODS FOR REDUCING ADVERSE SIDE EFFECTS IN CANCER TREATMENT” (priority 2022, published 2026)
